Data as given in patent US8722364B2, “Method for increasing microbial catalase production” (Jiangnan University, priority 2011, dated 2014).

Experiments:
[1] = system: Bacillus sp. WSHDZ-01; test: Fermentation of Bacillus sp. WSHDZ-01 with sodium hexametaphosphate added; extracellular catalase activity of the broth by catalase assay (Aebi); type: cell-based
Method: (§1) Fermentation Culture: the fermentation process was performed in a 3 liter (L) stirred fermenter (KFT-3L, Korea) with a working volume of 1.8 L. Above 12-h-old basic flask culture was added at a concentration of 5.0% (v/v) to 1.8 L fermentation medium, and incubated under a stepwise temperature control, in which the temperature was maintained at 37° C. for the first 10 hours, at 35° C. during 10-20 hours, and at 32° C. after 20 hours. The aeration rate was 1.0 (v/v/m) (volume of air per volume of culture per minute). The shaking speed was 400 rpm. The total fermentation period was 48 to 53 hours. Proteinase inhibitors can be added during this fermentation process as described below.
(§2) Catalase activity was measured using the method described by Aebi (Aebi HE. Catalase in vitro. Method Enzymol 1984; 105:121-6). Total reaction volume is 3 ml. 0.1 ml enzyme solution was added to 2.9 ml KH2PO4—K2HPO4 buffer (pH 7.0, 10 mM KH2PO4/50 mM K2HPO4, 0.45 g/L H2O2). Decomposition rate of H2O2 was measured at 240 nm using a UV-Vis spectrophotometer. One unit of catalase activity is defined as the amount of enzyme that decomposes 1 μmol H2O2 per min at pH 7.0, 25° C.
Bacillus sp. WSHDZ-01 with accession number CCTCC NO. M206062 was used to produce catalase. Bacillus sp. WSHDZ-01 grown on a slant culture was inoculated into 50 ml of liquid seed medium in a 250 ml culture flask and cultured at 37° C., 200 rpm for 12-14 hours. 6% above liquid seed culture (v/v) was added to 80 ml basic fermentation culture in a 500 ml culture flask, and incubate at 37° C., 200 rpm, for 36-40 hours.
as §1, with “the” for “Fermentation Culture: the”, “L” for “liter (L)”, “The” for “Above”, “hours.” for “hours. Proteinase inhibitors can be added during this fermentation process as described below.”

[2] = system: catalase; test: Storage stability of unpurified fermentation broth (remaining extracellular catalase activity); design: species or system Bacillus sp. WSHDZ-01
Method: as §2
The culturing of Bacillus sp. WSHDZ-01 was performed as described under control procedure with one modification, that is, 5 g/L sodium hexametaphosphate was added at 36 hours of fermentation.
After fermentation, unpurified fermentation broth was stored at 25° C. for 12 hours. […] The broth storage stability was improved by 28.3% under the procedure with sodium hexametaphosphate.

[3] = 1 g/L added at 30 hours of fermentation
[4] = 3 g/L added at 36 hours of fermentation
[5] = 5 g/L added at 36 hours of fermentation
[6] = 7 g/L added at 36 hours of fermentation
[7] = 10 g/L added at 40 hours of fermentation

O=P1([O-])OP(=O)([O-])OP(=O)([O-])OP(=O)([O-])OP(=O)([O-])OP(=O)([O-])O1.[Na+].[Na+].[Na+].[Na+].[Na+].[Na+] [sodium hexametaphosphate]
Extracellular catalase activity of the fermentation broth [1, 3]: 15700 U/mL | increase of enzyme activity from that of the control procedure [1, 3]: 16.3% | Extracellular catalase activity of the fermentation broth [1, 4]: 18600 U/mL | increase of enzyme activity from that of the control procedure [1, 4]: 37.7% | Extracellular catalase activity of the fermentation broth [1, 5]: 19200 U/mL | increase of enzyme activity from that of the control procedure [1, 5]: 42.2% | Extracellular catalase activity of the fermentation broth [1, 6]: 19700 U/mL | increase of enzyme activity from that of the control procedure [1, 6]: 45.9% | Extracellular catalase activity of the fermentation broth [1, 7]: 16900 U/mL | increase of enzyme activity from that of the control procedure [1, 7]: 25.2% | percentage of remaining extracellular catalase activity of the stored fermentation broth ([2]; 5 g/L added at 36 hours of fermentation, unpurified broth stored at 25° C. for 12 hours): 84.4% | broth storage stability improved ([2]; 5 g/L added at 36 hours, stored at 25° C. for 12 hours, versus control culture procedure (56.1%)): 28.3%
